We go through twelve compounds from patent US7745570B2, “PH dependent adhesive peptides” (Kansas State University Research Foundation, priority 2005, dated 2010).

“Also recorded” adds a separate entry of the source. Where no end group is shown, it is not given here.

For data set [1] the following is noted: Wimley and White Hydrophobicity Scale; cited from earlier work.
For data set [2] the following is noted: modified Wimley-White scale, side chain values; cited from earlier work.
Data set [3] is described as follows: Viscosity of peptide solutions, Brookfield viscometer. Type of data set: physicochemical. As to conditions: peptide 4%, 20 rpm, RT. How it is done:
Viscosity: Viscosity of peptides at different pH was measured in a Brookfield RVDV-III 5^+ viscometer (Middleboro, Mass.). All the measurements were taken at 2.5 minute intervals using 8 mL samples at ambient temperature with a spindle SC4-21 operating at 20 rpm. Five data points were averaged for each reported value.

Data set [4] in a line: Solubility and ionisation of peptides at the test pH values. Type of data set: physicochemical. Particulars: for Solubility: aqueous peptide solutions at pH 2.2, 6.8, 12.0.
A short description of data set [5]: MALDI mass spectrometry of dried/hot-pressed peptide for hydrolysis of peptide bonds. Format: physicochemical. As to conditions: 4% peptide pH 12, dried at RT or 130° C. without pressure or 130° C. with pressure. How it is done: The same K3h9K3 samples used in the FTIR studies were analyzed by matrix assisted, laser desorption mass spectrometry. At elevated pH and temperature, the spontaneous hydrolysis of peptide bonds could occur. Dried samples taken from glass slides treated with 4% peptide solutions at pH 12 and dried at either room temperature or 130° C. without pressure as well as dried at 130° C. with pressure were dissolved in acetonitrile containing matrix and transferred to mass spectral target slides.

The nature of data set [6]: Circular dichroism at 25° C. to 75° C. (conformational stability). As to conditions: 250 μM, pH 12, 25° C. to 75° C. Type of data set: physicochemical. How it is done:
Circular Dichroism Spectra: The data set out in FIG. 4 were collected according to the following protocol. The circular dichroic spectra were recorded on a J-720 (Jasco, Japan) spectropolarimeter with a Neslab RTE-111M circulator using a 1.0 mm quartz cuvette from 260 to 180 nm. The spectra are an average of five scans recorded at a rate of 20 nm/min with a 0.2 nm step interval. For circular dichroism measurements, 1 mL samples of synthetic peptide were prepared with a different pH buffer solution. The following buffers were used: 60 mM glycine, 60 mM NaCl, 40 mM HCl, pH 2.2; 50 mM glycine, 50 mM NaCl, 0.2 mM NaOH, pH 6.8; and 45 mM glycine, 45 mM NaCl, 55 mM NaOH, pH 12. The final peptide concentration was 250 μM. All spectra were corrected by subtracting the baseline of the buffer solution recorded under the same condition. Unless otherwise noted, spectra were recorded at room temperature. The CD absorbances were expressed as the mean residue ellipticity in units of degrees cm^2 dmol^−1. Temperatures were controlled with a refrigerated circulator bath (Neslab RTE-111M). Temperatures were controlled between 25° C. to 75° C.
For orientation: Circular dichroism is widely used to follow secondary structure.

As to `N[C@@H](CO)C(=O)O` [Ser], the “ΔG for transfer from water to organic phase” value (“ΔG for transfer from water” for short) in data set [1] is 1.92 kJ/mol.
Regarding `C[C@H](N)C(=O)O` [Ala, alanine], the ΔGresidue value in data set [2] was -2.1 kJ/mol. In addition, the “ΔG for transfer from water” value in data set [1] is 2.09 kJ/mol.
On to `N[C@@H](Cc1ccccc1)C(=O)O` [Phe], for which the “ΔG for transfer from water” value in data set [1] was -7.15 kJ/mol.
“EEEFLIVIGSIIEEE-OH [Peptide E3h9E3, EEE-FLIVIGSII-EEE]” showed a Viscosity in data set [3] (pH 12) of 20 mPa · s. The Solubility entry in data set [4] was “insoluble below and somewhat above its pI; also recorded: insoluble at the two lower pH values”.
Take HHHFLIVIGSIIHHH [Peptide H3h9H3]: the Solubility result in data set [4] is reported as “insoluble at all pH values”.
For the compound “KKK-FLIVIGSII-KKK (KKKFLIVIGSIIKKK) [Peptide K3h9K3]”, the “Peptide integrity (hydrolysis of peptide bonds)” value in data set [5] is recorded as “intact monomer however no detectable amounts of fragmented peptide”. Moreover, the Viscosity is listed as 20 mPa · s in data set [3] (pH 2.2), 20 mPa · s in data set [3] (pH 6.8) and 290 mPa · s in data set [3] (pH 12). Besides, in data set [6], the “Effect of temperature on CD spectra (conformation)” value is “did not alter the CD spectra”.
In the case of RRRFLIVIGSIIRRR [Peptide R3h9R3], the Ionisation state result in data set [4] (pH 12.0) is given as “not fully ionized”.
Take “KKK-FLIVIGSII-EEE (KKKFLIVIGSIIEEE) [Peptide K3h9E3]”: the Viscosity in data set [3] (pH 2.2) amounted to 210 mPa · s; in data set [3] (pH 6.8), 305 mPa · s; in data set [3] (pH 12), 20 mPa · s.
Regarding `NCC(=O)O` [Gly], the “ΔG for transfer from water” value in data set [1] was 4.81 kJ/mol.
With `CC(C)[C@H](N)C(=O)O` [Val, valine], the ΔGresidue value in data set [2] was 1.92 kJ/mol. Besides, in data set [1], the “ΔG for transfer from water” value was -1.92 kJ/mol.
On to `CSCC[C@H](N)C(=O)O` [Met], for which the “ΔG for transfer from water” value in data set [1] is -2.8 kJ/mol.
As for “EEE-FLIVIGSII-KKK (EEEFLIVIGSIIKKK) [Peptide E3h9K3]”, the Viscosity in data set [3] (pH 2.2) amounted to 190 mPa · s; in data set [3] (pH 6.8) it was 245 mPa · s; in data set [3] (pH 12), 20 mPa · s.
